The source made the active and inactive calls. No cut-off for these calls is given here.
Columns and labels:
[1] = test system: HepG2; assay: Cytotoxicity against human HepG2 cells assessed as inhibition of cell proliferation at 20 to 80 micromol/L incubated for 24 hrs by MTT assay; format: functional, cell-based; conditions: dose 20-80 µmol/L
[2] = test system: HepG2; assay: Anti-NASH activity in free fatty acid-induced nonalcoholic steatohepatitis model in human HepG2 cells assessed as reduction in intracellular lipid accumulation at 40 micromol/L incubated for 24 hrs by Oil Red O/ Hematoxylin staining based analysis; format: functional, cell-based; conditions: dose 40.0 µmol/L
[3] = test system: HepG2; assay: Anti-NASH activity in free fatty acid-induced nonalcoholic steatohepatitis model in human HepG2 cells assessed as reduction in intracellular triglyceride level measured per mg of protein at 40 micromol/L incubated for 24 hrs; format: functional, cell-based; conditions: dose 40.0 µmol/L
[4] = test system: HepG2; assay: Anti-NASH activity in free fatty acid-induced nonalcoholic steatohepatitis model in human HepG2 cells assessed as reduction in intracellular lipid accumulation at 100 micromol/L incubated for 24 hrs by Oil Red O/ Hematoxylin staining based analysis; format: functional, cell-based; conditions: dose 100.0 µmol/L
[5] = test system: HepG2; assay: Anti-NASH activity in free fatty acid-induced nonalcoholic steatohepatitis model in human HepG2 cells assessed as reduction in intracellular triglyceride level measured per mg of protein at 100 micromol/L incubated for 24 hrs; format: functional; conditions: dose 100 µmol/L
[6] = test system: HepG2; assay: Anti-NASH activity in free fatty acid-induced nonalcoholic steatohepatitis model in human HepG2 cells assessed as reduction in AST activity at 100 micromol/L incubated for 24 hrs; format: functional; conditions: dose 100 µmol/L
[7] = Hepatotoxicity in MCD diet-induced C57BL/6 mouse assessed as reduction in liver index at 100 mg/kg,po administrated for 4 weeks by hematoxylin and eosin staining based microscopic analysis; format: toxicity, organism-based; conditions: in vivo, 672 h
[8] = test system: Mus musculus; assay: Anti-NASH activity in MCD diet-induced nonalcoholic steatohepatitis C57BL/6 mouse assessed as reduction in triglyceride level in serum at 100 mg/kg,po administrated for 28 days; format: functional, organism-based; conditions: time 28.0 day
[9] = test system: Mus musculus; assay: Anti-NASH activity in MCD diet-induced nonalcoholic steatohepatitis C57BL/6 mouse assessed as decrease in serum AST activity at 100 mg/kg,po administrated for 28 days; format: functional, organism-based; conditions: time 28.0 day
[10] = test system: Mus musculus; assay: Anti-NASH activity in MCD diet-induced nonalcoholic steatohepatitis C57BL/6 mouse assessed as increase in serum HDL level at 100 mg/kg,po administrated for 28 days; format: functional, organism-based; conditions: time 28.0 day
[11] = test system: Mus musculus; assay: Anti-NASH activity in MCD diet-induced nonalcoholic steatohepatitis C57BL/6 mouse assessed as decrease in serum LDL level at 100 mg/kg,po administrated for 28 days; format: functional, organism-based; conditions: time 28.0 day
[12] = test system: Mus musculus; assay: Anti-NASH activity in MCD diet-induced nonalcoholic steatohepatitis C57BL/6 mouse assessed as decrease in serum ALT activity at 100 mg/kg,po administrated for 28 days; format: functional, organism-based; conditions: time 28.0 day
[13] = test system: Mus musculus; assay: Anti-NASH activity in MCD diet-induced nonalcoholic steatohepatitis C57BL/6 mouse assessed as increase in liver GSH level at 100 mg/kg,po administrated for 28 days; format: functional, organism-based; conditions: time 28.0 day
[14] = test system: Mus musculus; assay: Anti-NASH activity in MCD diet-induced nonalcoholic steatohepatitis C57BL/6 mouse assessed as decrease in serum TNF-alpha level at 100 mg/kg,po administrated for 28 days; format: functional, organism-based; conditions: time 28.0 day
[15] = test system: Mus musculus; assay: Anti-NASH activity in MCD diet-induced nonalcoholic steatohepatitis C57BL/6 mouse assessed as decrease in serum IL-6 level at 100 mg/kg,po administrated for 28 days; format: functional, organism-based; conditions: time 28.0 day
[16] = test system: HepG2; assay: Anti-NASH activity in free fatty acid-induced nonalcoholic steatohepatitis model in human HepG2 cells assessed as reduction in AST activity at 40 micromol/L incubated for 24 hrs; format: functional; conditions: dose 40 µmol/L
[17] = Hepatotoxicity in MCD diet-induced C57BL/6 mouse assessed as reduction in liver index at 3 to 30 mg/kg,po administrated for 4 weeks by hematoxylin and eosin staining based microscopic analysis; format: toxicity, organism-based; conditions: in vivo, 672 h, dose 3-30 mg/kg
[18] = test system: Mus musculus; assay: Anti-NASH activity in MCD diet-induced nonalcoholic steatohepatitis C57BL/6 mouse assessed as reduction in triglyceride level in serum at 3 mg/kg,po administrated for 28 days; format: functional, organism-based; conditions: time 28.0 day
[19] = test system: Mus musculus; assay: Anti-NASH activity in MCD diet-induced nonalcoholic steatohepatitis C57BL/6 mouse assessed as reduction in triglyceride level in serum at 10 mg/kg,po administrated for 28 days; format: functional; conditions: time 28 day
[20] = test system: Mus musculus; assay: Anti-NASH activity in MCD diet-induced nonalcoholic steatohepatitis C57BL/6 mouse assessed as reduction in triglyceride level in serum at 30 mg/kg,po administrated for 28 days; format: functional; conditions: time 28 day
[21] = test system: Mus musculus; assay: Anti-NASH activity in MCD diet-induced nonalcoholic steatohepatitis C57BL/6 mouse assessed as reduction in triglyceride level in serum at 3 mg/kg,po administrated […]; format: functional
[22] = test system: Mus musculus; assay: Anti-NASH activity in MCD diet-induced nonalcoholic steatohepatitis C57BL/6 mouse assessed as reduction in total cholesterol level in serum at 3 to 30 mg/kg,po administrated for 28 days; format: functional, organism-based; conditions: dose 3-30 mg/kg, time 28.0 day
[23] = test system: Mus musculus; assay: Anti-NASH activity in MCD diet-induced nonalcoholic steatohepatitis C57BL/6 mouse assessed as increase in serum HDL level at 3 to 30 mg/kg,po administrated for 28 days; format: functional, organism-based; conditions: dose 3-30 mg/kg, time 28.0 day
[24] = test system: Mus musculus; assay: Anti-NASH activity in MCD diet-induced nonalcoholic steatohepatitis C57BL/6 mouse assessed as decrease in serum LDL level at 3 to 30 mg/kg,po administrated for 28 days; format: functional, organism-based; conditions: dose 3-30 mg/kg, time 28.0 day
[25] = test system: Mus musculus; assay: Anti-NASH activity in MCD diet-induced nonalcoholic steatohepatitis C57BL/6 mouse assessed as decrease in serum AST activity at 3 to 30 mg/kg,po administrated for 28 days; format: functional, organism-based; conditions: dose 3-30 mg/kg, time 28.0 day
[26] = test system: Mus musculus; assay: Anti-NASH activity in MCD diet-induced nonalcoholic steatohepatitis C57BL/6 mouse assessed as decrease in serum ALT activity at 10 mg/kg,po administrated for 28 days; format: functional, organism-based; conditions: time 28.0 day
[27] = test system: Mus musculus; assay: Anti-NASH activity in MCD diet-induced nonalcoholic steatohepatitis C57BL/6 mouse assessed as decrease in serum ALT activity at 30 mg/kg,po administrated for 28 days; format: functional, organism-based; conditions: time 28.0 day
[28] = test system: Mus musculus; assay: Anti-NASH activity in MCD diet-induced nonalcoholic steatohepatitis C57BL/6 mouse assessed as increase in liver GSH level at 3 to 30 mg/kg,po administrated for 28 days; format: functional, organism-based; conditions: dose 3-30 mg/kg, time 28.0 day
[29] = test system: Mus musculus; assay: Anti-NASH activity in MCD diet-induced nonalcoholic steatohepatitis C57BL/6 mouse assessed as decrease in serum TNF-alpha level at 3 to 30 mg/kg,po administrated for 28 days; format: functional, organism-based; conditions: dose 3-30 mg/kg, time 28.0 day
[30] = test system: Mus musculus; assay: Anti-NASH activity in MCD diet-induced nonalcoholic steatohepatitis C57BL/6 mouse assessed as decrease in serum IL-6 level at 3 to 30 mg/kg,po administrated for 28 days; format: functional, organism-based; conditions: dose 3-30 mg/kg, time 28.0 day
[31] = test system: Mus musculus; assay: Anti-NASH activity in MCD diet-induced nonalcoholic steatohepatitis C57BL/6 mouse assessed as decrease in serum IL-8 level at 3 to 30 mg/kg,po administrated for 28 days; format: functional, organism-based; conditions: dose 3-30 mg/kg, time 28.0 day
[32] = test system: Mus musculus; assay: Anti-NASH activity in MCD diet-induced nonalcoholic steatohepatitis C57BL/6 mouse assessed as reduction in triglyceride level in serum at 3 to 30 mg/kg,po administrated for 28 days; format: functional, organism-based; conditions: dose 3-30 mg/kg, time 28.0 day
[33] = test system: Mus musculus; assay: Anti-NASH activity in MCD diet-induced nonalcoholic steatohepatitis C57BL/6 mouse assessed as increase in liver GSH level at 30 mg/kg,po administrated for 28 days; format: functional; conditions: time 28 day

Compound: CNc1ccc(C(=O)/C=C/c2cc(C)c(OC(C)(C)C(=O)O)c(C)c2)cc1
- Activity [1]: inactive
- Activity [2]: inactive
- Activity [3]: inactive

Compound: Cc1cc(/C=C/C(=O)c2ccc(N(C)Cc3ccccc3)cc2)cc(C)c1OC(C)(C)C(=O)O
- Activity [1]: inactive
- Activity [2]: Active
- Activity [3]: Active

Compound: CSc1ccc(C(=O)/C=C/c2cc(C)c(OC(C)(C)C(=O)OC(C)(C)C)c(C)c2)cc1
- Activity [1]: inactive
- Activity [2]: Active
- Activity [3]: Active

Compound: Cc1cc(/C=C/C(=O)c2ccc(N(C)C)cc2)cc(C)c1OC(C)(C)C(=O)OC(C)(C)C
- Activity [1]: inactive
- Activity [2]: inactive
- Activity [3]: inactive

Compound: Cc1cc(/C=C/C(=O)c2ccc(N(C)C)cc2)cc(C)c1OC(C)(C)C(=O)O
- Activity [1]: inactive
- Activity [2]: Active
- Activity [3]: Active

Compound: C[Se]c1ccc(C(=O)/C=C/c2cc(C)c(OC(C)(C)C(=O)OC(C)(C)C)c(C)c2)cc1
- Activity [1]: inactive
- Activity [2]: Active
- Activity [3]: Active

Compound: CC(C)OC(=O)C(C)(C)Oc1ccc(C(=O)c2ccc(Cl)cc2)cc1 [FENOFIBRATE]
- Activity [4]: Active
- Activity [5]: 0.15 mmol
- Activity [6]: 19.78 U/g
- Activity [7]: Toxic
- Activity [8]: Active
- Activity [9]: Active
- Activity [10]: Active
- Activity [11]: Active
- Activity [12]: Active
- Activity [13]: Active
- Activity [14]: Active
- Activity [15]: Active

Compound: CSc1ccc(C(=O)/C=C/c2cc(C)c(OC(C)(C)C(=O)O)c(C)c2)cc1 [ELAFIBRANOR]
- Activity [1]: Active
- Activity [2]: Active
- Activity [3]: Active
- Activity [16]: 18.31 U/g
- Activity [17]: Toxic
- Activity [18]: inactive
- Activity [19]: 0.69 mmol/L
- Activity [20]: 0.53 mmol/L
- Activity [21]: 0.64 mmol/L
- Activity [22]: Active
- Activity [23]: Active
- Activity [24]: Active
- Activity [25]: Active
- Activity [26]: Active
- Activity [27]: Active
- Activity [28]: Active
- Activity [29]: Active
- Activity [30]: Active
- Activity [31]: Active

Compound: COc1ccc(C(=O)/C=C/c2cc(C)c(OC(C)(C)C(=O)OC(C)(C)C)c(C)c2)cc1
- Activity [1]: inactive
- Activity [2]: Active
- Activity [3]: Active

Compound: C[Se]c1ccc(C(=O)/C=C/c2cc(C)c(OC(C)(C)C(=O)O)c(C)c2)cc1
- Activity [1]: Active
- Activity [2]: Active
- Activity [3]: Active

Compound: COc1ccc(C(=O)/C=C/c2cc(C)c(OC(C)(C)C(=O)O)c(C)c2)cc1
- Activity [1]: Active
- Activity [2]: Active
- Activity [3]: Active

Compound: CNc1ccc(C(=O)/C=C/c2cc(C)c(OC(C)(C)C(=O)OC(C)(C)C)c(C)c2)cc1
- Activity [1]: inactive
- Activity [2]: Active
- Activity [3]: Active
- Activity [16]: 18.65 U/g
- Activity [17]: Non-Toxic
- Activity [32]: Active
- Activity [22]: Active
- Activity [23]: Active
- Activity [24]: Active
- Activity [25]: Active
- Activity [26]: Active
- Activity [27]: Active
- Activity [28]: Active
- Activity [33]: 47.8 µmol/g
- Activity [29]: Active
- Activity [30]: Active
- Activity [31]: Active

Compound: Cc1cc(/C=C/C(=O)c2ccc(N(C)Cc3ccccc3)cc2)cc(C)c1OC(C)(C)C(=O)OC(C)(C)C
- Activity [1]: inactive
- Activity [2]: Active
- Activity [3]: Active

Source: ChEMBL document CHEMBL5620376, “Design, synthesis and anti-NASH effect evaluation of novel GFT505 derivatives in vitro and in vivo” (Eur J Med Chem, 2023)
